# ChEMBL document CHEMBL1127390, “Novel acyclic nucleotides and nucleoside 5'-triphosphates imitating 2',3'-dideoxy-2',3'-didehydronucleotides: synthesis and biological properties” (1994)
# pEC50: −log10 of the molar value. Active and inactive are the calls of the source. The calls are words filed in the database; no cut-off is given here.
# Columns and labels:
# [1] = system: MT4; test: Anti HIV-l activity in infected MT-4 cells cultures; NA is NO Activity; format: functional, cell-based; conditions: Homo sapiens
# [2] = system: MT4; test: Activity in HIV-l infected MT-4 cells cultures; No activity; format: functional, cell-based; conditions: Homo sapiens
# [3] = target: Human immunodeficiency virus type 1 reverse transcriptase (Human immunodeficiency virus 1) (UniProt Q72547); test: In vitro effective dose for the inhibition of human immunodeficiency virus (HIV) reverse transcriptase in MT-4 and peripheral lymphocyte (PBL) cell cultures; NI is No Inhibition up to a concentration of 100 uM; format: functional
# [4] = system: MT4; test: Anti HIV-l activity in infected MT-4 cells cultures; format: functional; conditions: Homo sapiens, read-out: ED50 (the source's name)
# [5] = target: Human immunodeficiency virus type 1 reverse transcriptase (Human immunodeficiency virus 1) (UniProt Q72547); test: Tested for percent inhibition of the human immunodeficiency virus (HIV) reverse transcriptase in MT-4; format: functional
smiles,measurement,setting,value
Cc1cn(C/C=C\COCP(=O)(O)O)c(=O)[nH]c1=O,ED50,[1],inactive
Nc1ncnc2c1ncn2C/C=C\CO,ED50,[2],inactive
Nc1ncnc2c1ncn2C/C=C\CCOP(=O)(O)OP(=O)(O)OP(=O)(O)O,ED50,[3],No inhibition
Nc1ncnc2c1ncn2C/C=C\COCP(=O)(O)O,pEC50,[4],5.05
Nc1nc(O)c2ncn(C/C=C\COCP(=O)(O)O)c2n1,ED50,[1],inactive
Nc1ccn(C/C=C\COCP(=O)(O)OP(=O)(O)OP(=O)(O)O)c(=O)n1,ED50,[5],50 µM
Nc1ccn(C/C=C\COCP(=O)(O)O)c(=O)n1,ED50,[1],inactive
